Results from US20240398762A1, “PHARMACEUTICAL COMPOSITION WITH ANALGESIC AND/OR ANTIPRURITIC FUNCTIONS AND APPLICATION THEREOF” (PENGEKIPHEN BIOTECH LIMITED COMPANY, priority 2022, published 2024).
Structures can show the parent of a compound that is named as a salt.

What was measured:
[1] = test system: subjects with painful diabetic peripheral neuropathy; settings: McDonnell et al., Pain 2018; cited from earlier work
[2] = test system: miR-96−/− mice; test: Mechanical pain threshold (Von Frey paw withdrawal threshold) of hind paws after intragastric administration; type: in vivo, mouse; settings: 1 h after administration; for dose group exhibiting the best analgesic effect: three doses tested
Procedure: In order to screen an analgesic drug with excellent oral efficacy, analgesic effects of intragastric administration of Nav1.7 inhibitor and Nav1.8 inhibitor in eight 3-6-month-old miR-96^−/− mice ([…] BIOTECH LIMITED COMPANY) were tested.
Firstly, mechanical pain thresholds of hind paws of the miR-96^−/− mice were measured. The eight miR-96^−/− mice were placed on an iron frame and covered with a plexiglass cover. After 30 min, paw withdrawal thresholds (PWT) of the mice were measured using Von Frey (DanMic Global, CA, USA). […] 1 h after the intragastric administration of 30 μg/kg, 60 μg/kg or 90 μg/kg of PF-06305591, the mechanical pain thresholds of the hind paws of the miR-96″ mice were measured.

Nc1n[nH]cc1-c1cc(Cl)ccc1Oc1cc(F)c(S(=O)(=O)Nc2cscn2)cc1Cl [PF-05089771, 4-[2-(3-amino-1H-pyrazol-4-yl)-4-chlorophenoxy]-5-chloro-2-fluoro-N-4-thiazolylbenzenesulfonamide tosylate]
analgesic effect in clinical studies [1]: does not exhibit desired analgesic effect | analgesic effect versus solvent control group ([2]; 4 mg/kg intragastric): significantly better than that of the solvent control group | analgesic effect versus solvent control group ([2]; 6 mg/kg intragastric): significantly better than that of the solvent control group | efficacy of the 6 mg/kg-dose group compared with the 4 mg/kg-dose group ([2]; intragastric): not better than that of the 4 mg/kg-dose group

CC(C)(N)c1ncc(-c2ccc(OC(F)(F)F)cc2)[nH]1 [PF-04885614, 1-methyl-1-[4-(4-trifluoromethoxy-phenyl)-1H-imidazol-2-yl]-ethylamine]
analgesic effect versus solvent control group ([2]; 180 μg/kg intragastric): significantly better than that of the solvent control group | analgesic effect versus solvent control group ([2]; 270 μg/kg intragastric): significantly better than that of the solvent control group | dose group exhibiting the best analgesic effect ([2]; intragastric): 0.18 mg/kg

NCC1(CC(=O)O)CCCCC1 [Gabapentin]
effect on mechanical pain thresholds ([2]; 50 mg/kg intragastric): significantly improve the mechanical pain thresholds

C[C@@H](C(N)=O)[C@H](N)c1nc2cc(C(C)(C)C)ccc2[nH]1 [PF-06305591, (αR, βS)-β-Amino-6-(1,1-dimethylethyl)-α-methyl-1H-benzimidazole-2-propanamide dihydrate]
analgesic effect versus solvent control group ([2]; 60 μg/kg intragastric): significantly better than that of the solvent control group | analgesic effect versus solvent control group ([2]; 90 μg/kg intragastric): significantly better than that of the solvent control group | dose group exhibiting the best analgesic effect ([2]; intragastric): 0.06 mg/kg

N#Cc1cc(S(=O)(=O)Nc2ncns2)ccc1Oc1ccc(-c2cccc(C(F)(F)F)c2)cc1-c1ccnc(CNCCC2CCNCC2)c1 [PF-06456384, 3-cyano-4-[[3-[2-[[[2-(4-piperidinyl)ethyl]amino]methyl]-4-pyridinyl]-3′-(trifluoromethyl)[1,1′-biphenyl]-4-yl]oxy]-N-1,2,4-thiadiazol-5-yl-benzenesulfonamide trihydrochloride]
analgesic effect versus solvent control group ([2]; 1 mg/kg intragastric): significant analgesic effects | analgesic effect versus solvent control group ([2]; 2 mg/kg intragastric): significant analgesic effects | analgesic effect versus solvent control group ([2]; 3 mg/kg intragastric): significant analgesic effects | dose group exhibiting the best analgesic effect ([2]; intragastric): 2 mg/kg

NC(=O)[C@@H]1CC[C@H](c2ccc(OCc3ccccc3F)cc2)N1 [CNV1014802]
analgesic effect versus solvent control group ([2]; 20 mg/kg intragastric): significant analgesic effects | analgesic effect versus solvent control group ([2]; 30 mg/kg intragastric): significant analgesic effects | analgesic effect versus solvent control group ([2]; 40 mg/kg intragastric): significant analgesic effects | dose group exhibiting the best analgesic effect ([2]; intragastric): 30 mg/kg
